Measurements taken from ChEMBL document CHEMBL1201862, “PubChem BioAssay data set” (2004).
Values joined by “and” are separate entries in the source; they are usually repeats but may differ in a detail not shown here. Equal entries are not always repeated. Active and inactive are the calls of the source. Peptide text beside a SMILES is read from it. * marks the point of attachment. Cbz = O=C(OCc1ccccc1)*; CH2Cl = ClC*

Columns and labels:
[1] = biological target: T1, ATP-dependent translocase ABCB1 (Homo sapiens, UniProt P08183); assay: inhibition of BCRP-mediated JC-1 efflux – Ig-MXP3 cells, flow cytometry, set 2, dose response (AID 504566); assay type: functional; conditions: read-out: EC50_MICROM_;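 further: flow cytometry median green fluorescence of retained JC-1 dye; potency of efflux pump inhibition measured as rising substrate retention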
[2] = biological target: T1, ATP-dependent translocase ABCB1; assay: P-gp JC-1 efflux blockade concentration-response – Jurkat-DNR cells, flow cytometry, set 2, dose response (AID 504569); assay type: functional; conditions: read-out: EC50_MICROM_;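 further: potency of pump inhibitors that raise cellular JC-1 green fluorescence up to the nicardipine level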
[3] = biological target: T2, Voltage-gated N-type calcium channel alpha-1B subunit/Amyloid beta A4 precursor protein-binding family A member 1 (Homo sapiens, UniProt Q00975+Q02410); assay type: protein assay
[4] = biological target: T2, Voltage-gated N-type calcium channel alpha-1B subunit/Amyloid beta A4 precursor protein-binding family A member 1; assay type: protein assay; remark: listed apart in the source
Beta-lactamase [5] = biological target: Beta-lactamase (Pseudomonas aeruginosa, UniProt Q79MP6);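 further: biochemical dose-response test of metallo-beta-lactamase enzyme inhibition, read out by epi-absorbance; purified recombinant IMP-1 metallo-beta-lactamase with nitrocefin as substrate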
Beta-lactamase [6] = biological target: Beta-lactamase (Salmonella choleraesuis (strain SC-B67), UniProt Q5J463)
[7] = biological target: T3, Small ubiquitin-related modifier 1 (Homo sapiens, UniProt P63165); assay: SUMO1 protein interaction blockers, potency – biochemical, fluorescence polarization, uHTS hits, dose response (AID 624382); assay type: functional; conditions: read-out: IC50_Mean
[8] = biological target: T3, Small ubiquitin-related modifier 1; assay: SUMO1 protein-protein binding blockers, potency – biochemical, FRET, dose response (AID 624383); assay type: functional; conditions: read-out: IC50_Mean
[9] = biological target: G-protein coupled receptor 55 (Homo sapiens, UniProt Q9Y2T6); assay: inhibition of LPI-stimulated GPR55 beta-arrestin translocation – imaging, U2OS, beta-arrestin-GFP, LPI agonist, primary screen (AID 2013); assay type: functional;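 further: antagonist potency measured as reduced agonist-driven arrestin aggregation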
[10] = biological target: T4, Adenosylmethionine-8-amino-7-oxononanoate aminotransferase (Mycobacterium tuberculosis, UniProt P9WQ81); assay: Mycobacterium tuberculosis BioA enzyme inhibitor Measured in Biochemical System Using Plate Reader - 2163-02_Inhibitor_Dose_CherryPick_Activity.; assay type: functional, Mycobacterium tuberculosis UT205
T4 sequence (P9WQ81 whole entry): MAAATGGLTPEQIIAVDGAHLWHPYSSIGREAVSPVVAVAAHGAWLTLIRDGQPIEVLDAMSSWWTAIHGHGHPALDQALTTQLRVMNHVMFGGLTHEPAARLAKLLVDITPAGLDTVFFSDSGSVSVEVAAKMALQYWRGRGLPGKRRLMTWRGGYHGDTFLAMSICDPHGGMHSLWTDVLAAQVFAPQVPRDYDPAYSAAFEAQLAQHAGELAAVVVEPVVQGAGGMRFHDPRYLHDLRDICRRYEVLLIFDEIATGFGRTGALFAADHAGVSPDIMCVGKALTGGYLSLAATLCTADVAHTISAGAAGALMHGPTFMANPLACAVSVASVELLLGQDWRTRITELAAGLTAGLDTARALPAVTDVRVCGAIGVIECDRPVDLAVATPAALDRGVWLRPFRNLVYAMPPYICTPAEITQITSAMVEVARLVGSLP

[11] = biological target: T5, Microphthalmia-associated transcription factor (Homo sapiens, UniProt O75030); assay: reducers of TRPM1 reporter luminescence, concentration series – cell-based, SK-MEL-5, cherry-picked, set 3, MITF inhibitor project, dose response (AID 493073); assay type: functional;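 further: SK-MEL-5 melanoma cells with luciferase driven by the MITF target TRPM1 promoter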
T5 sequence (O75030 whole entry): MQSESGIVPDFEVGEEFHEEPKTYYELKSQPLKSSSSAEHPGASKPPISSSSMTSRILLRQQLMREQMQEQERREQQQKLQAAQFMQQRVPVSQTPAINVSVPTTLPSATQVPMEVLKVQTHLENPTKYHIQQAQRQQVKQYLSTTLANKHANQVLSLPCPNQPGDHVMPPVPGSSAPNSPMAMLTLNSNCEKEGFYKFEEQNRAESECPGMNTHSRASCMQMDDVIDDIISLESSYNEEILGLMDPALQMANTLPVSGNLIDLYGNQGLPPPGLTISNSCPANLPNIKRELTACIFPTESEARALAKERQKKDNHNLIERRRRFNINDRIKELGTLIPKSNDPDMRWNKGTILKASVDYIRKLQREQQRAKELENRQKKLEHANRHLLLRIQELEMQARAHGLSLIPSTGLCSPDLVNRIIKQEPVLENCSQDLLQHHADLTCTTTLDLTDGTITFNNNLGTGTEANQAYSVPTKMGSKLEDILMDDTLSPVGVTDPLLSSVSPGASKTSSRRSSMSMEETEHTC

Vero [12] = assay: cells; assay type: functional, cell-based; conditions: Chlorocebus sabaeus
[13] = viability of uninfected HEp-2 cells – cell-based, HTS, cytotoxicity control for RSV inhibitor project, dose response (AID 2410); assay type: functional; conditions: human respiratory syncytial virus
HEK293 [14] = assay: cells; conditions: Homo sapiens
HEK293 [15] = assay: cells; conditions: Homo sapiens; remark: listed apart in the source
Vero [16] = assay: cells; assay type: functional; conditions: Chlorocebus sabaeus
Mu-type opioid receptor = Mu-type opioid receptor (Homo sapiens, UniProt P35372); assay type: functional, cell-based;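 further: U2OS cells with beta-arrestin recruitment to OPRM1 by beta-gal complementation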
[17] = biological target: 5-hydroxytryptamine receptor 2A (Mus musculus, UniProt P35363); assay type: functional, cell-based;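 further: CHO-K1 cells with tagged receptor and beta-arrestin; agonist potency measured as compound-induced activation of the receptor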
[18] = biological target: DNA dC->dU-editing enzyme APOBEC-3A (Homo sapiens, UniProt P31941); assay: Dose Response confirmation of small molecule APOBEC3A DNA Deaminase Inhibitors via a fluorescence-based single-stranded DNA deaminase assay. [Related pubchem assays (depositor defined):AID493011, AID493024]; assay type: functional
[19] = biological target: DNA dC->dU-editing enzyme APOBEC-3G (Homo sapiens, UniProt Q9HC16); assay type: functional;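 further: Dose-response counterscreen measuring inhibition of APOBEC3G DNA deaminase activity, run while confirming APOBEC3A inhibitors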
[20] = decrease of insulin promoter-GFP reporter – imaging, high-content screening, mouse beta cells (AID 1628); assay type: functional; conditions: MIN6
[21] = MIN6 cell viability loss – mouse insulinoma, cytotoxicity control, dose response (AID 2122); assay type: functional;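 further: confirmatory high-throughput counterscreen run to flag cytotoxic compounds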
Fatty acid synthase [22] = biological target: T6, Fatty acid synthase (Homo sapiens, UniProt P49327); assay: inhibition of human FAS-TE enzyme activity – biochemical, endpoint fluorescence intensity, uHTS hits, dose response (AID 624327); assay type: functional;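 further: fluorescence from hydrolysis of an O-methyl fluorescein acyl ester substrate by the enzyme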
Fatty acid synthase [23] = biological target: T6, Fatty acid synthase; assay: inhibition of human FAS-TE enzyme activity – biochemical, kinetic fluorescence intensity, dose response (AID 624326); assay type: functional;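 further: rate of fluorescence rise from hydrolysis of a fluorogenic O-methyl fluorescein ester substrate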
cells [24] = assay type: functional, cell-based
[25] = biological target: T7, Trace amine-associated receptor 1 (Homo sapiens, UniProt Q96RJ0); assay: Fluorescence-based cell-based high throughput dose response assay to identify agonists of the human trace amine associated receptor 1 (TAAR1).; assay type: functional
T7 sequence (Q96RJ0 whole entry): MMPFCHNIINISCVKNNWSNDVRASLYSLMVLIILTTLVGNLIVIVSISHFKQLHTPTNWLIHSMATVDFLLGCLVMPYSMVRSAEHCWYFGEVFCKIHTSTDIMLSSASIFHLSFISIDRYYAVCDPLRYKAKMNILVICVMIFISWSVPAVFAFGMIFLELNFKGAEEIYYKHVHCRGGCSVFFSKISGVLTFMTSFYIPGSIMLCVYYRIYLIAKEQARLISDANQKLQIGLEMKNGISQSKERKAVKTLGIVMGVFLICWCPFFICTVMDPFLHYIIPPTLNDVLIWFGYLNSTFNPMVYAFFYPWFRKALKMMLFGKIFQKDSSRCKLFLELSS

[26] = biological target: T7, Trace amine-associated receptor 1; assay: Counterscreen for agonists of the human trace amine associated receptor 1 (hTAAR1): Fluorescence-based cell-based high throughput dose response assay to identify hTAAR1 agonist that also desensitize TAAR1 receptor response.; assay type: functional
cells [27] = assay type: functional, cell-based; remark: listed apart in the source
cells [28] = assay: cells
[29] = biological target: Ras and Rab interactor 1/Tyrosine-protein kinase ABL1 (Homo sapiens, UniProt P00519+Q13671); assay type: functional;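 further: biochemical TR-FRET dose-response test measuring inhibition of binding between Rin1 and Abl proteins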
[30] = biological target: T8, Ubiquitin-conjugating enzyme E2 N (Homo sapiens, UniProt P61088); assay type: functional;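 further: Dose-response confirmation in a TR-FRET assay detecting UBC13-driven polyubiquitin chain formation, inhibition measured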
T8 sequence (P61088 whole entry): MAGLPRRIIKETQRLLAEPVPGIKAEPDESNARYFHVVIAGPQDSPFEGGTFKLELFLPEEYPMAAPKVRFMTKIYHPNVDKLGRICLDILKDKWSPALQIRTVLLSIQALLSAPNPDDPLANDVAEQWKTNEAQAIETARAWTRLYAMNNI

T1 sequence (P08183 whole entry): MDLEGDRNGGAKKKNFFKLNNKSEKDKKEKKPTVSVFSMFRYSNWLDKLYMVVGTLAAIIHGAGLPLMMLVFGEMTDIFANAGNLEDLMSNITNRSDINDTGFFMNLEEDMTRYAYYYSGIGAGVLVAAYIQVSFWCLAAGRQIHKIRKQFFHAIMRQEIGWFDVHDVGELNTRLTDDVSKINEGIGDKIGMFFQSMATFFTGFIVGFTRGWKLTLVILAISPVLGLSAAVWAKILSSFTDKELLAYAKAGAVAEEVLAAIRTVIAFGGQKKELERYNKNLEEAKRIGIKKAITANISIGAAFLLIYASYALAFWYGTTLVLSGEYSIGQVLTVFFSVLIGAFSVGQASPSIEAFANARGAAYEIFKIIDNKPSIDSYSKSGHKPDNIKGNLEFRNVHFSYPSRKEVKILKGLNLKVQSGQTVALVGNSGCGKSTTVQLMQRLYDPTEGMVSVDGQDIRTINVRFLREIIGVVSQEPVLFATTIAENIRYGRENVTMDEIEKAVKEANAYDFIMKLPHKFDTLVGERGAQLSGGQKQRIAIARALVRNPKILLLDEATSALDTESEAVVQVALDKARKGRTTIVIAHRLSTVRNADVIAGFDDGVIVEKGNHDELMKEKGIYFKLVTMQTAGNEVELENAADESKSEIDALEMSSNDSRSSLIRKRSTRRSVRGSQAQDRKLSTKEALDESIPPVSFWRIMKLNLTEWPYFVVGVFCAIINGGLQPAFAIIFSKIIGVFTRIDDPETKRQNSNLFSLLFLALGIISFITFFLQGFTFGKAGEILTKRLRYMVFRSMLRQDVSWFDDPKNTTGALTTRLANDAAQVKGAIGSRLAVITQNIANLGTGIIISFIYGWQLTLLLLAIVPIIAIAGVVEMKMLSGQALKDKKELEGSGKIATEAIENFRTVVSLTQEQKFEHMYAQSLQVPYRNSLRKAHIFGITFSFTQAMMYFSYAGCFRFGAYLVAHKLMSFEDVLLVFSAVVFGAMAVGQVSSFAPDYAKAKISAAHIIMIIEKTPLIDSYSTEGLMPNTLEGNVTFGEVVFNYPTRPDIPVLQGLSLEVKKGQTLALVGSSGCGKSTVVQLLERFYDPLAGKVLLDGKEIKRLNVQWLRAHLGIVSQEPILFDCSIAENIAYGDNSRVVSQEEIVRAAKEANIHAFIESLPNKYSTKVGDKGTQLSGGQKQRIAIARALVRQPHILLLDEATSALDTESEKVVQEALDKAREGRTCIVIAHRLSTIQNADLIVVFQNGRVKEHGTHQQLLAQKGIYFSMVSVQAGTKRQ
5-hydroxytryptamine receptor 2A, sequence (P35363 whole entry): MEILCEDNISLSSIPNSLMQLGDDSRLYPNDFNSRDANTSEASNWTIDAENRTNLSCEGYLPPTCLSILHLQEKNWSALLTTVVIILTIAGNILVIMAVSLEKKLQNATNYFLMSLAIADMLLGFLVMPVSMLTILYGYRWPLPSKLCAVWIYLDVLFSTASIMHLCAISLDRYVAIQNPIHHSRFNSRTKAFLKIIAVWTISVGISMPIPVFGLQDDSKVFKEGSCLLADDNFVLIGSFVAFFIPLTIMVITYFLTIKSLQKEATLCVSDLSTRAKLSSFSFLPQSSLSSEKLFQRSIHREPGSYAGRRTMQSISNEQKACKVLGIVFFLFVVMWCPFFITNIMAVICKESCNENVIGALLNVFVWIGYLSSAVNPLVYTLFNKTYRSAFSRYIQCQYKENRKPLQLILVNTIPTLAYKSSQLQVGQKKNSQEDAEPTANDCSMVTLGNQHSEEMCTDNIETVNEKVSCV
DNA dC->dU-editing enzyme APOBEC-3G, sequence (Q9HC16 whole entry): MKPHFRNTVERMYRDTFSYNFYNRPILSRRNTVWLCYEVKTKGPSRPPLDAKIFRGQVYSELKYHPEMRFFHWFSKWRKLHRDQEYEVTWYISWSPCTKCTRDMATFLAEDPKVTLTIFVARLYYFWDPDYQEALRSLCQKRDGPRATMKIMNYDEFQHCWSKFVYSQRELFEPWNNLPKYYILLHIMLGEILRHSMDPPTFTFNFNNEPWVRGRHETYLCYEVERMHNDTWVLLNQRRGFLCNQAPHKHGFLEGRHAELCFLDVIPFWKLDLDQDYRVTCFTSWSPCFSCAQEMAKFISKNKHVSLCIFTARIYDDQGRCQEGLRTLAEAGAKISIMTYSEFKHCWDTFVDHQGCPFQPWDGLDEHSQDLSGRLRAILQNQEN
Mu-type opioid receptor, sequence (P35372 whole entry): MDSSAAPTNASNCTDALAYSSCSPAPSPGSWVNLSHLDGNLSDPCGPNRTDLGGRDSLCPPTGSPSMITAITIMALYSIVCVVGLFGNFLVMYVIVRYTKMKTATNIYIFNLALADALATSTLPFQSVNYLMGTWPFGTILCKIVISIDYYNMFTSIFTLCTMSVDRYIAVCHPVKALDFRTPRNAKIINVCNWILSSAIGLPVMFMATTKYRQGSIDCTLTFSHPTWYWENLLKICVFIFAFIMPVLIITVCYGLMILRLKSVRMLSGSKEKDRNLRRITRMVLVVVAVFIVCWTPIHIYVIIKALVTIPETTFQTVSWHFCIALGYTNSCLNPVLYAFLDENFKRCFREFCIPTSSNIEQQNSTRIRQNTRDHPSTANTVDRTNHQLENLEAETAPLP
DNA dC->dU-editing enzyme APOBEC-3A, sequence (P31941 whole entry): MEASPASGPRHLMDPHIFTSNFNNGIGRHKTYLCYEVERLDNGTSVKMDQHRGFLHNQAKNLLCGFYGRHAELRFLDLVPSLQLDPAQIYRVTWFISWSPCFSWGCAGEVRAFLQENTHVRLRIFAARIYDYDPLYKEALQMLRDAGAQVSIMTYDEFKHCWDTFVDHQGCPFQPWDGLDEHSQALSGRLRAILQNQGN
T3 sequence (P63165 whole entry): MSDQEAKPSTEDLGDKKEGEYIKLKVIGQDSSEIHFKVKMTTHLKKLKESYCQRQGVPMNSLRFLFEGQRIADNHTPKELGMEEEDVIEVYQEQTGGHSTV
G-protein coupled receptor 55, sequence (Q9Y2T6 whole entry): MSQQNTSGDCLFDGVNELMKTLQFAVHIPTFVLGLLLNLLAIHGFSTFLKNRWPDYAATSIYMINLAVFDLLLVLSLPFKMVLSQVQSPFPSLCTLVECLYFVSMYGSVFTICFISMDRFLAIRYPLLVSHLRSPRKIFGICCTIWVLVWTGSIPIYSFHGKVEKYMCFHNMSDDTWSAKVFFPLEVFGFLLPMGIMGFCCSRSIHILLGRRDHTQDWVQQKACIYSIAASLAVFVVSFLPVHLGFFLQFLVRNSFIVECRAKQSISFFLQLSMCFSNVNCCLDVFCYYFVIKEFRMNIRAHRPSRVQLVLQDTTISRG
Beta-lactamase (Salmonella choleraesuis (strain SC-B67), UniProt Q5J463), sequence (Q5J463 whole entry): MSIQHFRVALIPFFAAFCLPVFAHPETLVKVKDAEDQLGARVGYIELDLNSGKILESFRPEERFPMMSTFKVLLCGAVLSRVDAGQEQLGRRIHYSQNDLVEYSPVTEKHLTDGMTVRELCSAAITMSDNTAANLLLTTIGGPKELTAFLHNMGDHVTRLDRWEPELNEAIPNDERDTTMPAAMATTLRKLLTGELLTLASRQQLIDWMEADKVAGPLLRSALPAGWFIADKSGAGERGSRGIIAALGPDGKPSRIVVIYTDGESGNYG
Beta-lactamase (Pseudomonas aeruginosa, UniProt Q79MP6), sequence (Q79MP6 whole entry): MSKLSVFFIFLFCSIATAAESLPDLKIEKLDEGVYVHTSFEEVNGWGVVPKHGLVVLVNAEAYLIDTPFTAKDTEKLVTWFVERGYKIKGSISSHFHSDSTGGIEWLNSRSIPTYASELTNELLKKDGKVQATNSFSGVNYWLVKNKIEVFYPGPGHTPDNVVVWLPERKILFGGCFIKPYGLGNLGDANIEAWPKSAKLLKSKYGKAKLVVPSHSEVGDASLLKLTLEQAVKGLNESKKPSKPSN

Compound: O=C(c1ccccc1)N1CCN(c2cc(-c3ccccc3)nc3cc(-c4cccc(F)c4)nn23)CC1
- EC50 [1]: 2.41 µM (active)
- EC50 [2]: 5.82 µM (active)

Compound: Cc1ccc(Cn2c(C(C)Nc3nc(-c4ccc(C)cc4)cs3)nc3cc(Cl)c(Cl)cc32)cc1 (centres undefined)
- IC50 [3]: 4.57 µM (active)
- IC50 [4]: > 50 µM (inactive)
- IC50 (Beta-lactamase [5]): > 59.6 µM (inactive)
- IC50 (Beta-lactamase [6]): > 59.6 µM (inactive)
- IC50 [7]: > 66.6 µM (inactive)
- IC50 [8]: 3.52 µM (active)

Compound: CCc1ccccc1N(CC)C(=O)CCc1nc(-c2ccc(C)cc2)no1
- IC50 [9]: 1.06 µM (active)

Compound: O=C(Nc1cccnc1)c1ccc(Oc2ccccc2)cc1
- AC50 [10]: 0.751 µM (active)

Compound: Nc1c(N(CCC2=CCCCC2)C(=O)COc2ccc([N+](=O)[O-])cc2)c(=O)[nH]c(=O)n1Cc1ccccc1
- AC50 [11]: 14.2 µM (active)

Compound: CN(c1ccc(OCC(=O)Nc2ccccc2C(=O)O)cc1)S(=O)(=O)c1ccc(Cl)cc1
- IC50 (Vero [12]): 20.1 µM (active)

Compound: COc1cc(OC)c(-c2nn3c(C4CCCCC4)nnc3s2)cc1OC
- CC50 [13]: 33.1 µM (active)
- EC50 (HEK293 [14]): > 59.6 µM (inactive)
- EC50 (HEK293 [15]): > 59.6 µM (inactive)

Compound: CC(C)CC(NC(=O)OCc1ccccc1)C(=O)NC(Cc1ccccc1)C(=O)CCl (stereo not drawn) (Cbz-Leu-Phe-CH2Cl; configuration not given here)
- IC50 (Vero [12]): 20.5 µM (active)
- CC50 (Vero [16]): 21.5 µM (active)

Compound: CC(N)Cc1c[nH]c2ccc(Cl)cc12 (centres undefined)
- EC50 (Mu-type opioid receptor): 92.5 µM (inactive)
- EC50 [17]: 1.64 µM (active)

Compound: CN1CCC(N(C)S(=O)(=O)c2ccc(NC(=O)COc3ccc(Br)cc3Cl)cc2)CC1
- IC50 [18]: 10.4 µM (active)
- IC50 [19]: 14.2 µM (active)

Compound: O=C(CNc1cc(S(=O)(=O)N2CCCC2)ccc1OCC(F)(F)F)Nc1ccc(SC(F)F)cc1
- IC50 [20]: 2.54 µM (active)
- IC50 [21]: 1.85 µM (active)
- IC50 (Fatty acid synthase [22]): 6.37 µM (active)
- IC50 (Fatty acid synthase [23]): 2.98 µM (active)

Compound: COc1cccc(Nc2nc(NCCO)c3ccccc3n2)c1
- IC50 (cells [24]): > 29.9 µM (inactive)
- EC50 [25]: 4.4 µM (active)
- IC50 [26]: 14 µM (inactive)
- EC50 (cells [27]): > 29.9 µM (inactive)

Compound: Clc1ccc(CN2CCN(c3ccccc3)CC2)cn1
- EC50 (Mu-type opioid receptor): 92.5 µM (inactive)
- EC50 [17]: 5.22 µM (active)

Compound: O=C(c1ccncc1)N1CCN(c2cc(-c3ccccc3)nc3cc(-c4cccc(Cl)c4)nn23)CC1
- EC50 [1]: 1.19 µM (active)
- EC50 [2]: 0.95 µM (active)

Compound: CCOC(=O)C(NC(C)=O)(N1CCc2ccccc2C1)C(F)(F)F (centres undefined)
- IC50 (cells [24]): > 29.9 µM (inactive)
- EC50 [25]: 0.0868 µM (active)
- IC50 [26]: 2.8 µM (active)
- EC50 (cells [27]): > 29.9 µM (inactive)

Compound: O=C(O)c1cccnc1Nc1ccc(Cl)cc1
- CC50 [13]: 14.7 µM (active)
- IC50 (Vero [12]): 17.3 µM (active)
- IC50 (cells [28]): 7.51 µM (active)

Compound: O=C(c1ccccc1)N1CCN(c2cc(-c3ccccc3)nc3cc(-c4cccc(Cl)c4)nn23)CC1
- EC50 [1]: 1.05 µM (active) and 1.81 µM (active)
- EC50 [2]: 2.26 µM (active) and 4 µM (active)

Compound: CCNC(=O)C[C@H]1CC[C@@H]2[C@@H](COc3ccc(NC(=O)Nc4cccc(F)c4)cc3C(=O)N2C)O1
- AC50 [10]: 4.35 µM (active)

Compound: COc1ccc(CN2CCN(C(=O)c3ccco3)CC2)c(OC)c1OC
- EC50 (Mu-type opioid receptor): 92.5 µM (inactive)
- EC50 [17]: 6.39 µM (active)

Compound: CN(C)C(=S)N=c1ssc(=S)n1Cc1cccnc1
- EC50 (HEK293 [14]): > 59.6 µM (inactive)
- EC50 (HEK293 [15]): > 59.6 µM (inactive)

Compound: CCN1C(=NCCN2CCOCC2)N[C@@H](c2ccccc2)C(C(=O)OC)=C1C
- IC50 [18]: 4.2 µM (active)
- IC50 [19]: 4.54 µM (active)

Compound: CCN1/C(=C\C(C)=O)Sc2ccc(OC)cc21
- IC50 [18]: 2.69 µM (active)
- IC50 [19]: 2.89 µM (active)

Compound: CCn1c(SCC(=O)NC2CCCCC2)nc2ccccc2c1=O
- IC50 [18]: 5.15 µM (active)
- IC50 [19]: 4.97 µM (active)

Compound: CC(C)(C)[S@+]([O-])N1Cc2cc(C(=O)NCc3ccccc3F)nc(-c3cccc(-c4cccnc4)c3)c2[C@@H]1CCO
- AC50 [10]: 9.55 µM (active)

Compound: Cc1ccc(S(=O)(=O)N2CCN(C(=O)Cn3cnc4c3c(=O)n(C)c(=O)n4C)CC2)cc1C
- IC50 [29]: 21.5 µM (inactive)

Compound: CCOc1ccc2nc(NC3=NC(C)=CC(C)(C)N3)nc(C)c2c1
- IC50 [20]: 3.25 µM (active)
- IC50 [21]: 6.46 µM (active)
- IC50 [30]: > 20 µM (inactive)

Compound: CCSc1ccccc1C(=O)n1nnc2ccccc21
- AC50 [11]: 11.8 µM (active)
